Where a name gives a salt, the structure may show the parent alone.
Assays:
blood pressure = assay: BP (Hypotensive activity); type: in vivo; settings: intravenous, allobarbital-anaesthetised dog
Source text: (§1) The results of standard laboratory tests are shown below in Table 1, wherein the various activities are shown relative to PGE1.
The compounds produce falls in blood pressure when administered intravenously to the allobarbital-anaesthetised dog.

stress ulceration = assay: GUI (Inhibitory activity on gastric ulceration), stress ulceration; type: in vivo, rat; settings: stress ulceration of rats, oral, water bath 19° C. for 6 hours
Method: as §1
The compounds produce an inhibition of stress ulceration by oral administration in the stress ulceration of rats produced according to the method of Takagi and Okabe [Jap. J. Pharmc., 18, 9-18 (1968)], i.e. by soaking rats in a water bath at 19° C. for 6 hours.

uterine contraction = assay: UCA (Uterine contraction activity); type: in vivo, pregnant female rat; settings: for UCA (Uterine contraction activity), relative to PGE1: pregnant female rat, intravenous, 20th day of gestation
Source text: as §1
The compounds stimulate uterine contraction in the pregnant female rat when administered intravenously on the 20th day of gestation.
Moreover, other compounds of the present invention [prepared as hereafter described in the Examples] other than the above compounds for which results are given in Table 1 stimulate uterine contraction when administered intravenously to the pregnant female rat on the 20th day of gestation at doses of 0.2-100 μg/kg animal body weight.

[1] = system: isolated cat coronary artery; settings: J.C.S. Chem. Comm., 375 (1978); cited from earlier work
[2] = system: women in the early stages of pregnancy; assay: Clinical: termination of pregnancy; type: in vivo, human
Method: (§2) One pessary containing 1 mg of (13E)-(6RS,9α,11α,15S)-6,9-epithio-11,15-dihydroxyprost-13-enoic acid methyl ester (prepared as described in Example 21) was administered vaginally two to five times at one- to three-hour intervals to fifteen women aged from twenty to forty years in the early stages of pregnancy.
One to three tablets containing 0.25 mg of (13E)-(6RS,9α,11α,15R)-6,9-epithio-11,15-dihydroxy-16,16-dimethylprost-13-enoic acid methyl ester (prepared as described in Example 17) were administered orally one to five times to seven women aged from twenty-five to thirty years in the early stages of pregnancy.

[3] = system: women in the expired stage of pregnancy; assay: Clinical: induction of labour; type: in vivo, human; settings: pessary 0.2 mg, vaginal, one to three times at one- to three-hour intervals; five women
Method: One pessary containing 0.2 mg of (13E)-(6RS,9α,11α,15S)-6,9-epithio-11,15-dihydroxyprost-13-enoic acid methyl ester (prepared as described in Example 21) was administered vaginally one to three times at one- to three-hour intervals to five women aged from twenty to forty years in the expired stage of pregnancy.

[4] = system: women two or three days before the expected date of menstruation; assay: Clinical: beginning of menstruation; type: in vivo, human
Method: as §2, with “vaginally one” for “vaginally two”, “years two or three days before” for “years in”, “the expected date” for “the early stages”, “of menstruation.” for “of pregnancy.”
One pessary containing 0.5 mg of (13E)-(6RS,9α,11α,15R)-6,9-epithio-11,15-dihydroxy-16,16-dimethylprost-13-enoic acid methyl ester (prepared as described in Example 21) was administered vaginally one to three times at one- to three-hour intervals to three women aged twenty or twenty-one years two or three days before the expected date of menstruation.
One to three tablets containing 0.5 mg of (13E)-(6RS,9α,11α,15S)-6,9-epithio-11,15-dihydroxyprost-13-enoic acid methyl ester (prepared as described in Example 17) were administered orally to five women aged from twenty to twenty-two years two or three days before the expected date of menstruation.

[5] = LD50 (Acute toxicity tests); settings: mouse, in vivo, iv; injected intravenously into mice
Method: The compounds are injected intravenously into mice.

gastric acid secretion = assay: GSI (Inhibitory activity on gastric acid secretion); type: in vivo; settings: increase in gastric acid pH from 2.0-2.5 to at least 4.0 in 50% of pentagastrin-treated rats, perfused intravenously
Source text: as §1
The compounds produce an increase in gastric acid pH from 2.0-2.5 to at least 4.0 in 50% of pentagastrin-treated rats when perfused intravenously.

diarrhoea = assay: Diarrhoea (Diarrhoea-producing activity); type: in vivo; settings: diarrhoea in 50% of mice, oral
Source text: as §1
The compounds produce diarrhoea in 50% of mice by oral administration.

[6] = system: platelet-rich plasma of rats; assay: PAI (Inhibitory activity on blood platelet aggregation), adenosine diphosphate-induced; type: cell-based, rat; settings: 50% inhibition of ADP-induced aggregation
[7] = system: human blood platelet aggregation; settings: J.C.S. Chem. Comm., 375 (1978); cited from earlier work
artery = settings: cited from earlier work
[8] = system: blood platelet aggregation of the human; settings: cited from earlier work
blood platelets = settings: cited from earlier work

Diarrhoea (Diarrhoea-producing activity), relative to PGE1 (diarrhoea) | Compound | BP (Hypotensive activity), relative to PGE1 (blood pressure) | GUI (Inhibitory activity on gastric ulceration), relative to PGE1 (stress ulceration) | UCA (Uterine contraction activity), relative to PGE1 (uterine contraction) | activity on isolated cat coronary artery [1] | LD50 [5] [mg/kg] | GSI (Inhibitory activity on gastric acid secretion), relative to PGE1 (gastric acid secretion) | PAI (Inhibitory activity on blood platelet aggregation), relative to PGE1 [6] | activity on human blood platelet aggregation [7] | other results
< 0.1 | CCCCC[C@H](O)/C=C/[C@@H]1[C@H]2CC(CCCCC(=O)O)S[C@H]2C[C@H]1O (mixture of isomers) [B, (13E)-(6RS,9α,11α,15S)-6,9-epithio-11,15-dihydroxyprost-13-enoic acid] | 0.2 | < 0.5 | 10 | vasoconstricting activity on isolated cat coronary artery |  | < 0.1 | 0.038 | inhibitory activity on human blood platelet aggregation | stimulatory activity on uterine contraction (in words) (uterine contraction; rat, in vivo): selective strong stimulatory activity on uterine contraction
0.514 | CCCC[C@H](C)[C@H](O)/C=C/[C@@H]1[C@H]2CC(CCCCC(=O)OC)S[C@H]2C[C@H]1O (mixture of isomers) [E, (13E)-(6RS,9α,11α,15S,16S)-6,9-epithio-11,15-dihydroxy-16-methylprost-13-enoic acid methyl ester] | 0.55 | < 0.5 | 27.3 |  |  | < 0.3 | 0.21 |  | 
1 | CCCCC[C@H](O)/C=C/[C@H]1[C@H](O)CC(=O)[C@@H]1CCCCCCC(=O)O [PGE1, reference compound] | 1 |  | 1 |  |  | 1 |  |  | 
< 0.1 | CCCCC[C@H](O)/C=C/[C@@H]1[C@H]2C/C(=C/CCCC(=O)OC)O[C@H]2C[C@H]1O [PGI2 methyl ester, reference compound] | 20 |  | 0.5 |  |  |  | 85 |  | 
 | CCCCC[C@H](O)/C=C/[C@@H]1[C@H]2C/C(=C/CCCC(=O)O)O[C@H]2C[C@H]1O [PGI2, (5Z,13E)-(9α,11α,15S)-6,9-epoxy-11,15-dihydroxyprosta-5,13-dienoic acid] |  |  |  |  |  |  |  |  | activity on the artery (artery): relaxing activity on the artery; inhibition of arachidonic acid-induced blood platelet aggregation [8]: strongly inhibits
 | CCCCC[C@H](O)/C=C/[C@@H]1[C@H]2CC(CCCCC(=O)O)S[C@H]2C[C@H]1O (stereo partly shown) [sodium salt] |  |  |  | vasoconstricting activity on isolated cat coronary artery |  |  |  | inhibitory activity on human blood platelet aggregation | 
 | CCCCC[C@H](O)/C=C/[C@H]1O[C@H]2C[C@H](O2)[C@@H]1C/C=C\CCCC(=O)O [thromboxane A2] |  |  |  |  |  |  |  |  | activity on blood platelets (blood platelets): aggregating activity on blood platelets; activity on the artery (artery): contracting activity on the artery

Compound | Diarrhoea (Diarrhoea-producing activity), relative to PGE1 (diarrhoea) | BP (Hypotensive activity), relative to PGE1 (blood pressure) | GUI (Inhibitory activity on gastric ulceration), relative to PGE1 (stress ulceration) | UCA (Uterine contraction activity), relative to PGE1 (uterine contraction) | activity on isolated cat coronary artery [1] | LD50 [5] [mg/kg] | GSI (Inhibitory activity on gastric acid secretion), relative to PGE1 (gastric acid secretion) | PAI (Inhibitory activity on blood platelet aggregation), relative to PGE1 [6] | activity on human blood platelet aggregation [7] | other results
CCCCC[C@H](O)/C=C/[C@@H]1[C@H]2CC(CCCCC(=O)OC)S[C@H]2C[C@H]1O (mixture of isomers) [A, (13E)-(6RS,9α,11α,15S)-6,9-epithio-11,15-dihydroxyprost-13-enoic acid methyl ester] | 0.072 | 0.2 | < 0.5 | 11.5 | vasoconstricting activity on isolated cat coronary artery | 100 | < 0.1 | 0.03 | inhibitory activity on human blood platelet aggregation | termination of pregnancy ([2]; pessary 1 mg, vaginal, two to five times, fifteen women): confirmed in all the cases; induction of labour [3]: confirmed in all the cases; beginning of menstruation ([4]; one to three tablets 0.5 mg, oral, five women): confirmed in all the cases; beginning of menstruation ([4]; pessary 1 mg, vaginal, one to five times, fifteen women): confirmed in all the cases
CCCCC(C)(C)[C@H](O)/C=C/[C@@H]1[C@H]2CC(CCCCC(=O)OC)S[C@H]2C[C@H]1O (mixture of isomers) [D, (13E)-(6RS,9α,11α,15R)-6,9-epithio-11,15-dihydroxy-16,16-dimethylprost-13-enoic acid methyl ester] | 0.095 | < 0.1 | < 0.5 | 23.1 |  | 25 | < 0.3 | 0.006 |  | termination of pregnancy ([2]; one to three tablets 0.25 mg, oral, one to five times, seven women): confirmed in all the cases; beginning of menstruation ([4]; pessary 0.5 mg, vaginal, one to three times, three women): confirmed in all the cases
CCCCC1([C@H](O)/C=C/[C@@H]2[C@H]3CC(CCCCC(=O)OC)S[C@H]3C[C@H]2O)CCC1 (stereo partly drawn) [C, (13E)-(6RS,9α,11α,15R)-6,9-epithio-11,15-dihydroxy-15-(1-butylcyclobutyl)-16,17,18,19,20-pentanorprost-13-enoic acid methyl ester] | < 0.02 | < 0.1 | < 0.5 | 15.8 |  | 100 | 0.3 | 0.011 |  | 
